Entries after “also recorded” stand apart in the source; their conditions may differ. No end group written: not given here.
Columns and labels:
[1] = tested on: hα3β2/4 nicotinic acetylcholine receptor (nAchR); assay: FLIPR Ca2+ fluorescence, nicotine-stimulated SH-SY5Y cells; assay type: cell-based, human; details: 10 µM, added 5 min prior to nicotine (30 µM)
Description: (§1) To further test the selectivity of sHt1a and sGg1a, we examined their activity on hNaV1.2/NaV1.7 and hCaV2.2 channels, as well as the hα3β2/4 nicotinic acetylcholine receptor (nAchR), that are endogenously expressed in the neuroblastoma cell line SH-SY5Y using a high-throughput fluorescent assay as previously described. In brief, SH-SY5Y cells were seeded at a density of 40,000 cells/well in black-walled imaging plates (Corning, Lowell, MA, USA), then incubated for 48 h at 37 °C in a 5% humidified CO2 incubator. On the day of the assay, cells were loaded with Calcium 4 No-wash dye (Molecular Devices) by reconstituting the lyophilised dye in physiological salt solution (PSS in mM: 140 NaCl, 11.5 glucose, 5.9 KCl, 1.4 MgCl2, 1.2 NaH2PO4, 5 NaHCO3, 1.8 CaCl2, 10 HEPES, pH 7.4). Cells were incubated with the dye for 30 min at 37 °C in a 5% humidified CO2 incubator. Gg1a and Ht1a (10 µM) were added 5 min prior to stimulation with either veratridine (50 µM, hNaV1.2/NaV1.7 activator), nicotine (30 µM, hα3β2/4 nAchR activator) or KCl/CaCl2 (90 mM/5 mM, CaV1.3/2.2 activator) Fluorescent responses were recorded using a FLIPR^Penta fluorescent plate reader (Molecular Devices) with excitation at 470–495 nm and emission at 515–575 nm.

V. destructor mites = assay: Topical varroa assay of venom fractions / purified native peptides; assay type: in vivo, Varroa destructor; details: native peptide / HPLC fraction; Ht1a three cohorts of 5 mites, Gg1a two cohorts of 5 mites
Description: An outline of the project discovery pipeline is presented in Supplementary Fig. 1. To identify varroacidal venom peptides, we screened venoms for activity against V. destructor by topical application. Topical tests were performed in several stages. First, whole venom was tested to determine mortality for V. destructor. Hit venoms were then subjected to several fractionation steps to isolate the active compounds. For the initial venom screen, a panel of 50 arthropod venoms (Table 1) were topically applied to V. destructor mites. Venoms were dissolved in 90% acetonitrile (v/v), and a 10 μg venom aliquot was applied per mite (n = 5 mites per venom). The dorsal plate of V. destructor mites (average mass 0.38 mg) was fixed to adhesive tape (ScotchTM 666 3 M; 19 × 32.9 mm, double sided) on microscope slides (ground edges 90° frosted end, 76 × 26 mm). A Nanoject II (Automatic Injector with Glass Capillaries, Drummond Cat.No. 3-000-205 A) was used for topical application of venom and control (90% acetonitrile) solutions. […] Mite mortality was determined at various time intervals up to 48 h after the treatment using an Olympus stereomicroscope (SZX10/SZX2 Series). […] The percentage of mite mortality for each venom was calculated at 2, 6 and 24 h, and adjusted by correcting for the mortality of the corresponding control group receiving only 90% acetonitrile. […]

hNaV1.2/NaV1.7 = assay: FLIPR Ca2+ fluorescence, veratridine-stimulated SH-SY5Y cells; assay type: cell-based, human; details: 10 µM, added 5 min prior to veratridine (50 µM)
Description: as §1

hNaV1.4 = assay: Automated whole-cell patch clamp, hNaV1.4 + β1 in HEK 293 cells; assay type: cell-based, human; details: 3 μM, 50 ms pulse to −20 mV from −90 mV, ECS with 0.1% BSA, at least 2 min
Description: To examine for off-target activity on mammalian ion channels and receptors, we first tested the activity of sHt1a and Gg1a against human NaV channels. Whole-cell patch-clamp recordings were performed on Human Embryonic Kidney (HEK) 293 cells stably expressing human NaV1.4 or NaV1.5 in conjunction with the β1 subunit (SB Drug Discovery, Glasgow, United Kingdom) using a QPatch II automated electrophysiology platform (Sophion Bioscience, Ballerup, Denmark). Whole-cell currents were filtered at 8 kHz and acquired at 25 kHz. The linear leak was corrected by P/4 subtraction (leak potential −90 mV, leak sweep amplitude 10%). Series resistance across recorded cells ranged between 5 and 10 MΩ. The extracellular solution (ECS) consisted of (in mM): 145 NaCl, 4 KCl, 2 CaCl2, 1 MgCl2, 10 HEPES, and 10 glucose, adjusted to pH 7.4 with NaOH and to 305 mOsm/L with sucrose. The intracellular solution (ICS) consisted of (in mM): 140 CsF, 1 EGTA, 5 CsOH, 10 HEPES, and 10 NaCl, adjusted to pH 7.3 with CsOH and 320 mOsm/L with sucrose. Currents were elicited from a holding potential of −90 mV delivered with a 50 ms depolarising pulse to −20 mV every 20 s (0.05 Hz). Peptides were diluted in ECS containing 0.1% BSA and applied to cells for at least 2 min at the concentrations stated. Peak currents were normalised to the buffer control.

KYCAPRKAVCNTPADCCDKSSRCAYPNYGLGYYLDSEFFGKRKICSWRL (also: bicyclic or more (positions not given here)) [Ht1a, μ-gradutoxin-Ht1a]
inhibition of nicotine-mediated Ca2+ influx (α3 nAChRs) [1]: partially blocked
inhibition of nicotine-mediated Ca2+ influx (α3 nAChRs) ([1]; listed as sHt1a): partial inhibition
topical varroacidal activity (V. destructor mites): contained the varroacidal activity; also recorded: confirmed
effect on neuronal NaV channels (hNaV1.2/NaV1.7): inactive
effect on neuronal NaV channels (hNaV1.2/NaV1.7; listed as sHt1a): did not significantly affect
effect on hNaV1.4 currents (hNaV1.4): inactive
effect on hNaV1.4 currents (hNaV1.4; listed as sHt1a): did not significantly affect

U1-macrothelitoxin-Gg1a
inhibition of nicotine-mediated Ca2+ influx (α3 nAChRs) [1]: inactive
topical varroacidal activity (V. destructor mites): topical varroacidal activity; also recorded: confirmed
effect on neuronal NaV channels (hNaV1.2/NaV1.7): inactive
effect on neuronal NaV channels (hNaV1.2/NaV1.7; listed as sGg1a): did not significantly affect
effect on hNaV1.4 currents (hNaV1.4): inactive
effect on hNaV1.4 currents (hNaV1.4; listed as sGg1a): did not significantly affect

Source: paper PMC13233288, “Spider venom peptides Ht1a and Gg1a are toxic to honeybee parasite Varroa destructor by topical application” (npj Drug Discovery, 2026)
